Reference: patent US7119064B2, “Use of colostrinin, constituent peptides thereof, and analogs thereof as modulators of intracellular signaling molecules” (Board of Regents, The University of Texas System, priority 1999, dated 2006)
Marks after values point to notes of the source that are not given here.

Key:
Format in all cases: cell-based
[1] = test system: intracellular GSH in PC12 cells; experiment: Intracellular glutathione (GSH) level, o-phthalaldehyde fluorimetry
Description: Measurement of glutathione (GSH): In brief, PC12 cells were mock- or pre-treated with CLN or lactalbumin hydrolysate (LAH), both in 10 μg/ml concentration and then exposed to 4HNE (25 nM). PBS-washed (twice) cells were then extracted with 25% (w/v) metaphosphoric acid solution containing 5 mM EDTA. After ultracentrifugation (105,000 g for 30 min), 100 μl of 100 mM phosphate solution (pH 8.0) containing 5 mM EDTA and 10 μl of o-phthalaldehyde OPA(OPD; Molecular Probes, Inc.) was added to the supernatant, and the fluorescence intensity at 420 nm determined with excitation set at 350 nm (A. P. Senft et al., Anal Biochem., 280:80–86 (2000)).
To investigate whether the anti-oxidant effect of CLN was due to protection of intracellular GSH levels, PC12 cells were pre-treated (with CLN or LAH) and exposed to 4HNE, as described above, and changes in GSH levels were determined fluorimetrically. […] OPA (o-phthalaldehyde or phthalic dicarboxaldehyde) is highly fluorescent when it is conjugated to GSH (A.P. Senft et al., Anal Biochem., 280:80–86 (2000)).

[2] = test system: 4HNE-protein adducts in PC12 cells; experiment: 4HNE-protein adduct formation, fluorescent microscopy (immunocytochemistry); conditions: 4HNE 25 nM or H2O2 100 μM alone
Description: Cell cultures: Pheochromocytoma (PC12) cells were provided by Dr. Regino Perez-Polo (University of Texas Medical Branch, Department of Human Biological Chemistry and Genetics) and maintained in EMEM supplemented with 10% fetal bovine serum, penicillin (100 IU/mI) and streptomycin (100 micrograms per milliliter (μg/ml)). Exponentially growing populations of PC12 cells were sub-cultured and used for all experiments.
Immunocytochemistry: PC12 cells grown on cover-slips were fixed overnight in PBS containing 2% paraformaldehyde at 4° C. Cells were permeabilized by 0.3% Triton X-100, washed in PBS then incubated with primary antibody in PBS containing 0.05% Tween 20 (PBS-T). After washing 3 times in PBS-T, FITC-labeled anti-rabbit IgG (Santa Cruz Biotechnology Inc.) was added. Cells were washed (5 times, for 10 min) with PBS-T and mounted on microscope slides in anti-fade solution (Dako, Inc.). Images of cellular immunofluorescence were acquired using a NIKON Eclipse TE300 scanning microscope.
Fluorescent microscopy and Western blot analysis was undertaken to investigate the extent of 4HNE protein-adduct formation in cultures of PC12 cells in the presence of CLN. Cells were pretreated with CLN or LAH in the presence or absence of 4HNE and then analyzed for the formation of 4HNE-protein adducts.

[3] = test system: 4HNE-protein adducts in PC12 cells; experiment: 4HNE-protein adduct levels, Western blot analysis; conditions: 4HNE 25, 12.5, 6.2 nM alone
Description: (§1) Western blot analysis: PC12 cells were plated at 7×10^6 cells/T75 flask. After exposure to 4HNE, colostrinin or their combination, cells were collected and lysed in 50 millimolar (mM) Tris, 5 mM EDTA, 150 mM NaCl, 0.5% NP-40, 10% glycerol and protease inhibitor cocktail (supplemented with 1 mM Na3VO4, 2 mM EDTA, 1 mM phenylmethylsulfonyl fluoride). Lysates were centrifuged at 14,000g for 10 minutes (min) (4° C.) and 40 μg of protein was fractionated on a 10% SDS-polyaciylamide gel and transferred to protein-optimized membranes (Amersham, Inc.). p53 was detected using specific antibody (DO1; Santa Cruz Biotechnology, Inc.) at a dilution of 1:300. Adducts were detected using an antibody to HNE-protein adducts (Phanningen, Inc.) at a dilution of 1:500. The anti-phospho-JNK antibody (New England Biolabs, Inc., Beverly, Mass.) was raised against a synthetic phosphopeptide (SFMMT*PY*VVTRYYR) corresponding to residues 179–193 of JNK. For visualization of primary antibody binding, all blots were incubated with horseradish peroxidase-conjugated secondary antibody (Amersham, Inc.) at a dilution of 1:2000, followed by chemiluminescence detection (Amersham, Inc.) and autoradiography.
To confirm the results generated by immunochemistry, Western blot analysis was used to investigate changes in 4HNE-protein adduct levels in cells treated with 4HNE alone or CLN plus 4HNE.

[4] = test system: JNK; experiment: 4HNE-induced JNK activation, Western blot with anti-phospho-(Thr-183/Tyr-185) JNK antibody; conditions: PC12 cells
Description: as §1, with “For visualization of primary antibody binding, all blots were incubated with horseradish peroxidase-conjugated secondary antibody (Amersham, Inc.) at a dilution of 1:2000, followed by chemiluminescence detection (Amersham, Inc.) and autoradiography.” left out
The effect of CLN on 4HNE-induced activation of JNK in PC12 cells was investigated. The activation of JNK was monitored by Western blot analysis using a highly specific anti-phospho- (Thr-183/Tyr-185) JNK antibody (Materials and Methods).

[5] = test system: PC12 cells; experiment: 4HNE-induced apoptosis, annexin V-PE / 7-AAD flow cytometry
Description: FIG. 8. […] PC12 cells were treated with CLN (1 μg per ml) for 15 min and 4HNE (100 nM) was added. Twenty four hours later, cells were harvested and stained with annexin V-PE and 7-AAD. 1, solvent alone; 2, 100 nM 4HNE; 3, TROLOX (vitamin E) 4, col (internal control)+100 nM 4HNE; 5, CLN alone (1 μg per ml); 6, CLN (1 μg per ml)+100 nM 4HNE.
Apoptosis is a specific mode of cell death recognized by a characteristic pattern of morphological, biochemical, and molecular changes. Currently the hallmark of apoptosis in vitro is DNA fragmentation and changes in plasma membrane reorganization that allows for the surface expression of phosphatidyl-D-serine and result in increased membrane permeability. The protection of cells against 4HNE by CLN using increased permeability and cell membrane expression of phosphatidyl-D-serine was investigated.
Cells were simultaneously labeled with fluorochrome-conjugated annexin V-PE (detecting PS asymmetry in the plasma membrane, an early marker of apoptosis), 7-aminoactinomycin D (7-AAD) (detecting increased membrane permeability associated with both apoptosis and necrosis). A dual laser flow cytometer (either a Becton-Dickinson FACScan) was used for the simultaneous detection of the PE-conjugated annexin V (which is excited at […]), 7-AAD (excited at 488 nm and emitting at 670 nm). […]

[6] = test system: GSH extrusion from PC12 cells; experiment: Reduced GSH in extracellular fluid (GSH extrusion); conditions: 4HNE, relative to CLN- or mock-treated cells
Description: To determine whether the loss of intracellular GSH was due to it's extrusion from the cells or oxidation, the level of reduced GSH in the extra-cellular fluid was evaluated.

[7] = test system: p53; experiment: 4HNE-induced activation of p53, Western blot; conditions: 4HNE-treated PC12 cells
Description: as §1
Whether CLN could modulate p53 levels after 4HNE exposure was also investigated.

[8] = test system: SH-SY5Y cells; experiment: Protection against retinoic acid toxicity in SH-SY5Y cells, microscopic grading; conditions: for DIFFERENTIATION: Retinoic Acid 20 μM (Day 1) alone
Description: (§2) Retinoic Acid was left on the plate for the duration of the experiment or until washed off. Colostrinin was added to the plate at the indicated doses. When added on Day 1, it was present during the entire experiment. When added on Day 5, it was incubated on the plate for 30 minutes at 37° C. and then removed. The wells were washed twice with PBS before adding β-Amyloid. Cultures were then observed under the microscope and graded.

[9] = test system: SH-SY5Y cells; experiment: Anti-apoptotic activity against β-amyloid toxicity in SH-SY5Y cells, microscopic grading; conditions: Beta-amyloid 10 μg/ml added on day 5
Description: as §2, with “To determine whether this was reproducible and to determine the potency of CLN to inhibit retinoic acid toxicity, two concentration of retinoic acid were used to treat cells on day one of the experiment, 20 μM and 40 μM. *Control wells were mock-treated for the duration of the experiment. Retinoic” for “Retinoic”

CCCCCC(O)/C=C/C=O (centres unmarked) [4HNE]
loss of GSH ([1]; 4HNE 25 nM): more than 50%
intracellular GSH levels, 4HNE alone ([1]; 4HNE alone for 30 min): significant reduction of intracellular GSH levels
4HNE-protein adduct fluorescence, inducer alone [2]: bright fluorescence
4HNE-protein adduct levels (Western blot), 4HNE alone [3]: significant increase in levels of 4HNE-protein adducts
JNK phosphorylation, 4HNE alone ([4]; 4HNE 25 nM alone): potent inducer of JNK phosphorylation
toxic effects / induction of apoptosis ([5]; 4HNE 25 nM, PC12 cells): did not show toxic effects or induce apoptosis
apoptosis, 4HNE alone ([5]; 4HNE 100 nM): Induction of apoptosis
OPA-GSH-mediated fluorescence of extracellular fluid [6]: significant increase in OPA-GSH-mediated fluorescence
p53 activation, 4HNE alone [7]: induced its activation

Nc1ncnc2c1nc(Sc1ccc(Cl)cc1)n2[C@@H]1O[C@@H]2COP(=O)(O)O[C@H]2[C@H]1O [8-(4-chlorophenylthio)-cAMP]
4HNE-induced JNK phosphorylation ([4]; pretreatment with inhibitor of JNK activation): prevented 4HNE-induced JNK phosphorylation

OO [H2O2]
4HNE-protein adduct fluorescence, inducer alone [2]: bright fluorescence

CC1=C(/C=C/C(C)=C/C=C/C(C)=C/C(=O)O)C(C)(C)CCC1 [Retinoic Acid]
DIFFERENTIATION ([8]; cells observed Day 2): ++++ (Day 2)^b (++++ Approximately 100% of the cells)
DIFFERENTIATION ([8]; cells observed Day 8): + (Day 8)^b (+ Approximately 25% of the cells)
onset of toxicity, retinoic acid alone ([8]; retinoic acid 20 μM): started showing signs of toxicity by day 6
cell morphology, retinoic acid alone (FIG. 6F) ([8]; retinoic acid 20 μM added on day 1): Toxic (apoptotic) effect
toxicity, retinoic acid alone ([8]; retinoic acid 40 μM): the toxicity developed too rapidly

β-Amyloid
cell morphology, Beta-amyloid alone (FIG. 6B) [9]: show its toxicity
